“Also recorded” adds a separate entry of the source.
Assays:
[1] = system: BM-derived human CD34+ cells; assay: CFU-C assay of CD34+ cells retrieved from bone marrow of primary recipients; assay type: cell-based; conditions: 15-18 weeks, inhibitor at time of ex vivo GE vs standard protocol
CB-derived HSPCs = assay: Whole transcriptomic analysis with GSEA; assay type: cell-based, human; conditions: CB HSPCs edited in presence of Anakinra vs not treated, 24 and 96 h
Experimental: Whole transcriptomic analysis was performed on a pool of HSPCs derived from five CB donors. All conditions were performed in triplicate. […] RNA was quantified with The Qubit 2.0 Fluorometer (ThermoFisher) and its quality was assessed by a 2100 Agilent Bioanalyser (Agilent Technologies). Minimum quality was defined as RNA integrity number (RIN) >8,300 ng of total RNA were used for library preparation with TruSeq Stranded Total RNA with Ribo-Zero Gold kit (Illumina) and sequenced on a NextSeq 500 (Illumina). Read quality was determined using FastQC and low-quality sequences were trimmed using Trimmomatic. RNA-seq data were aligned to the human reference genome (GRCh38/hg38) using both HISAT2 and STAR with standard input parameters. Gene counts were produced using Subread featureCounts against Genecode v26 or v31, considering results produced by both the aligners. After visual inspection of results, we continued the analysis using alignments achieved using HISAT, which provided more conservative alignments. […] Differential expression was determined considering only protein coding genes and correcting p-values using FDR.

For “Anakinra: recombinant and slightly modified form of the Human interleukin-1 receptor antagonist (IL-1Ra); SEQ ID NO: 3”, the “Number of colonies formed by BM-derived CD34+ cells” value [1] was “higher clonogenic potential” and the “GSEA normalized enrichment scores for inflammatory/TNFα dependent pathways, interferon responses, senescence categories” value (CB-derived HSPCs) was “negative and significantly high normalized enrichment scores (NES); also recorded: downregulated early and late upon Anakinra treatment”.

Reference: US20240408145A1, “Gene Therapy” (Ospedale San Raffaele S.r.l., priority 2021, published 2024)
